# Laboratory results as given in the supplement of paper PMC6045584.
# ± gives the standard deviation of the averaged measurements.
# Tests used:
# CARBOPLATIN [1] = compound: T1, O=C(O)C1(C(=O)O)CCC1.[NH2-].[NH2-].[Pt+2] [CARBOPLATIN]; experiment: surviving fraction relative to DMSO-only wells; higher = less growth inhibition; conditions: exposure time: 5 days
# Outline: (§1)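 Luminescence normalised to the median of DMSO-only wells defines surviving fraction, with viability read by CellTiter-Glo. Signal was recorded after 10 minutes at room temperature, once log-phase tumour cell lines seeded at 250–500 cells per well in 384-well plates had spent 24 hours settling and then five days under continuous exposure to inhibitors at 0.5, 1, 5, 10, 50, 100, 500 and 1000 nM.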
# CAMPTOTHECIN [2] = compound: T2, CC[C@@]1(O)C(=O)OCc2c1cc1n(c2=O)Cc2cc3ccccc3nc2-1 [CAMPTOTHECIN]; experiment: as above; conditions: exposure time: 5 days
# Outline: as §1
# YM155 [3] = compound: T3, COCC[n+]1c2c(n(Cc3cnccn3)c1C)C(=O)c1ccccc1C2=O [YM155]; experiment: as above; conditions: exposure time: 5 days
# Outline: as §1
# [4] = compound: CC(=O)c1c(C)c2cnc(Nc3ccc(N4CCNCC4)cn3)nc2n(C2CCCC2)c1=O; experiment: as above; conditions: exposure time: 5 days
# Outline: as §1
# CELECOXIB = compound: Cc1ccc(-c2cc(C(F)(F)F)nn2-c2ccc(S(N)(=O)=O)cc2)cc1 [CELECOXIB]; experiment: area under dose-response curve of surviving fraction (unscaled, Aref=0) (surviving fraction x log10(nM)); higher = more resistant; conditions: exposure time: 5 days; dose range 0.5-1000 nM
# Outline: (§2)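 Each tumour cell line was screened three times in 384-well plates, receiving eight inhibitor concentrations from 0.5 to 1000 nM for five days. CellTiter-Glo luminescence gave viability, normalised to DMSO-only wells. Using the drc R package, surviving fractions were fitted with 3-parameter logistic dose-response curves, and the unscaled activity area over log10 dose (Aref = 0) was taken as the area under the curve.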
# GEFITINIB = compound: COc1cc2ncnc(Nc3ccc(F)c(Cl)c3)c2cc1OCCCN1CCOCC1 [GEFITINIB]; experiment: as above; conditions: exposure time: 5 days; dose range 0.5-1000 nM
# Outline: as §2
# [5] = compound: CC(=O)NCC(=O)N1[C@@H]2CC[C@H]1c1ccc(Nc3ncc(C(F)(F)F)c(NC4CCC4)n3)cc12; experiment: as above; conditions: exposure time: 5 days; dose range 0.5-1000 nM
# Outline: as §2
# OSI-906 = compound: C[C@]1(O)C[C@@H](c2nc(-c3ccc4ccc(-c5ccccc5)nc4c3)c3c(N)nccn32)C1 [OSI-906]; experiment: as above; conditions: exposure time: 5 days; dose range 0.5-1000 nM
# Outline: as §2
# PACLITAXEL = compound: CC(=O)O[C@H]1C(=O)[C@@]2(C)[C@H]([C@H](OC(=O)c3ccccc3)[C@]3(O)C[C@H](OC(=O)[C@H](O)[C@@H](NC(=O)c4ccccc4)c4ccccc4)C(C)=C1C3(C)C)[C@]1(OC(C)=O)CO[C@@H]1C[C@@H]2O [PACLITAXEL]; experiment: as above; conditions: exposure time: 5 days; dose range 0.5-1000 nM
# Outline: as §2
# CARBOPLATIN [6] = compound: T1, CARBOPLATIN; experiment: as above; conditions: exposure time: 5 days; dose range 0.5-1000 nM
# Outline: as §2
# CAMPTOTHECIN [7] = compound: T2, CAMPTOTHECIN; experiment: as above; conditions: exposure time: 5 days; dose range 0.5-1000 nM
# Outline: as §2
# YM155 [8] = compound: T3, YM155; experiment: as above; conditions: exposure time: 5 days; dose range 0.5-1000 nM
# Outline: as §2
# [9] = compound: CC(=O)c1c(C)c2cnc(Nc3ccc(N4CCNCC4)cn3)nc2n(C2CCCC2)c1=O; experiment: as above; conditions: exposure time: 5 days; dose range 0.5-1000 nM
# Outline: as §2
test system,measurement,setting,value
HOS BONE,surviving fraction,CARBOPLATIN [1]; 0.5 nM,1.06 ± 0.013
same,surviving fraction,CARBOPLATIN [1]; 1 nM,1.05 ± 0.02
same,surviving fraction,CARBOPLATIN [1]; 5 nM,1.04 ± 0.03
same,surviving fraction,CARBOPLATIN [1]; 10 nM,1.04 ± 0.02
same,surviving fraction,CARBOPLATIN [1]; 50 nM,1.15 ± 0.05
same,surviving fraction,CARBOPLATIN [1]; 100 nM,1.11 ± 0.033
same,surviving fraction,CARBOPLATIN [1]; 500 nM,1.07 ± 0.02
same,surviving fraction,CARBOPLATIN [1]; 1000 nM,1.068 ± 0.0086
same,surviving fraction,CAMPTOTHECIN [2]; 0.5 nM,0.902 ± 0.0096
same,surviving fraction,CAMPTOTHECIN [2]; 1 nM,0.889 ± 0.017
same,surviving fraction,CAMPTOTHECIN [2]; 5 nM,0.758 ± 0.011
same,surviving fraction,CAMPTOTHECIN [2]; 10 nM,0.25 ± 0.021
same,surviving fraction,CAMPTOTHECIN [2]; 50 nM,0.1 ± 0.0059
same,surviving fraction,CAMPTOTHECIN [2]; 100 nM,0.056 ± 0.005
same,surviving fraction,CAMPTOTHECIN [2]; 500 nM,0.0223 ± 0.00058
same,surviving fraction,CAMPTOTHECIN [2]; 1000 nM,0.0237 ± 0.00058
same,surviving fraction,YM155 [3]; 0.5 nM,0.923 ± 0.0036
same,surviving fraction,YM155 [3]; 1 nM,0.503 ± 0.017
same,surviving fraction,YM155 [3]; 5 nM,0.075 ± 0.0078
same,surviving fraction,YM155 [3]; 10 nM,0.0527 ± 0.0038
same,surviving fraction,YM155 [3]; 50 nM,0.0267 ± 0.00058
same,surviving fraction,YM155 [3]; 100 nM,0.0197 ± 0.00058
same,surviving fraction,YM155 [3]; 500 nM,0.0193 ± 0.00058
same,surviving fraction,YM155 [3]; 1000 nM,0.0243 ± 0.00058
same,surviving fraction,[4]; 0.5 nM,1.02 ± 0.068
same,surviving fraction,[4]; 1 nM,1.03 ± 0.021
same,surviving fraction,[4]; 5 nM,1.01 ± 0.022
same,surviving fraction,[4]; 10 nM,1.04 ± 0.034
same,surviving fraction,[4]; 50 nM,1.114 ± 0.0042
same,surviving fraction,[4]; 100 nM,1.07 ± 0.06
same,surviving fraction,[4]; 500 nM,1.05 ± 0.016
same,surviving fraction,[4]; 1000 nM,1.08 ± 0.057
same,area under dose-response curve,CELECOXIB,3.42
same,area under dose-response curve,GEFITINIB,3.42
same,area under dose-response curve,[5],2.69
same,area under dose-response curve,OSI-906,3.06
same,area under dose-response curve,PACLITAXEL,0.728
same,area under dose-response curve,CARBOPLATIN [6],3.54
same,area under dose-response curve,CAMPTOTHECIN [7],1.25
same,area under dose-response curve,YM155 [8],0.418
same,area under dose-response curve,[9],3.47
